Tested on: TEAD Reporter-MCF7 cell line
Assay: YAP/TEAD cellular activity assay: inhibition of TEAD-Luc activity in TEAD Reporter-MCF7 cell line
Format: cell-based, human
Conditions: TEAD Reporter-MCF7 cells, 24 hours incubation with compound, luciferase readout
In short: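 MCF7 cells stably carrying a TEAD-responsive firefly luciferase reporter were seeded at 10,000 cells/well, grown 20-24 h, then exposed to compounds for 24 h at 37° C. Luciferase read by ONE-Glo EX luminescence; percent inhibition and EC50 derived.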

SMILES	EC50 (Homo sapiens, MCF7, 24 h)	EC50
CNS(=O)(=O)c1ccc(Oc2ccc(C(F)(F)F)cc2)c(-c2cc3c(cc2F)N(C)C(=O)CC3)c1 [2-23, 3-(7-fluoro-1-methyl-2-oxo-1,2,3,4-tetrahydroquinolin-6-yl)-N-methyl-4-[4-(trifluoromethyl)phenoxy]benzene-1-sulfonamide]	3640 nM	–
CNS(=O)(=O)c1ccc(Oc2ccc(C(F)(F)F)cc2)c(-n2cc3c(n2)CN(C)C3)c1 [6-1, N-Methyl-3-(5-methyl-5,6-dihydropyrrolo [3,4-c]pyrazol-2(4H)-yl)-4-(4-(trifluoromethyl)phenoxy)benzenesulfonamide]	6690 nM	–
CNS(=O)(=O)c1ccc(Oc2cc(C(F)(F)F)cc(C(F)(F)F)c2)c(-c2cnn3c2CCC3)c1 [3-2, 4-[3,5-bis(trifluoromethyl)phenoxy]-3-(5,6-dihydro-4H-pyrrolo[1,2-b]pyrazol-3-yl)-N-methylbenzene-1-sulfonamide]	9140 nM	–
CNS(=O)(=O)c1ccc(Oc2ccc(C(F)(F)F)cc2)c(-c2ccc(OC)c3nc(C(F)(F)F)[nH]c23)c1 [2-3, 3-[4-methoxy-2-(trifluoromethyl)-1H-benzimidazol-7-yl]-N-methyl-4-[4-(trifluoromethyl)phenoxy]benzene-1-sulfonamide]	4920 nM	–
CNS(=O)(=O)c1ccc(Oc2ccc(F)c(F)c2)c(-c2cnn3c2OCC3)c1 [1-48, 4-(3,4-difluorophenoxy)-3-(2,3-dihydropyrazolo[5,1-b]oxazol-7-yl)-N-methylbenzenesulfonamide]	1060 nM	–
CNS(=O)(=O)c1ccc(Oc2cccc(Cl)c2)c(-c2cn3c(n2)CCC3)c1 [4-5, 4-(3-chlorophenoxy)-3-(6,7-dihydro-5H-pyrrolo[1,2-a]imidazol-2-yl)-N-methylbenzene-1-sulfonamide]	103 nM	–
CNS(=O)(=O)c1ccc(Oc2ccc(C(F)(F)F)cc2)c(-c2nc3c(s2)CNC3)c1 [1-14, 3-(5,6-dihydro-4H-pyrrolo[3,4-d] [1,3]thiazol-2-yl)-N-methyl-4-[4-(trifluoromethyl)phenoxy]benzene-1-sulfonamide]	2640 nM	–
CNS(=O)(=O)c1ccc(Oc2ccc(C(F)(F)F)cc2)c(-c2cn3c(n2)C(C)CC3)c1 (single isomer, unassigned) [1-44, (S)- or (R)-N-methyl-3-(7-methyl-6,7-dihydro-5H-pyrrolo[1,2-a]imidazol-2-yl)-4-[4-(trifluoromethyl)phenoxy]benzene-1-sulfonamide]	–	33.6 nM
CNS(=O)(=O)c1ccc(Oc2ccc(Cl)cc2F)c(-c2cn3c(n2)CCC3)c1 [4-20, 4-(4-chloro-2-fluorophenoxy)-3-(6,7-dihydro-5H-pyrrolo[1,2-a]imidazol-2-yl)-N-methylbenzene-1-sulfonamide]	15 nM	–
CNS(=O)(=O)c1ccc(Oc2ccc(C(C)C)cc2)c(-c2cn3c(n2)CCC3)c1 [4-8, 3-(6,7-dihydro-5H-pyrrolo [1,2-a]imidazol-2-yl)-N-methyl-4-[4-(propan-2-yl)phenoxy]benzene-1-sulfonamide]	5.5 nM	–
CNS(=O)(=O)c1ccc(Oc2ccc(C(F)(F)F)cc2)c(-c2cnn3c2OCC3)c1 [2-1, 3-(2,3-Dihydropyrazolo[5,1-b]oxazol-7-yl)-N-methyl-4-(4-(trifluoromethyl)phenoxy)benzenesulfonamide]	26 nM	–
CNS(=O)(=O)c1ccc(Oc2ccc(C(F)(F)F)cc2)c(-c2cn3ccsc3n2)c1 [1-18, 3-(imidazo[2,1-b][1,3]thiazol-6-yl)-N-methyl-4-[4-(trifluoromethyl)phenoxy]benzene-1-sulfonamide]	34.1 nM	–
CNS(=O)(=O)c1ccc(Oc2ccc(C(F)(F)F)cc2)c(-c2cn3c(n2)COCC3)c1 [1-3, 3-(5,6-Dihydro-8H-imidazo[2,1-c] [1,4]oxazin-2-yl)-N-methyl-4-(4-(trifluoromethyl)phenoxy)benzenesulfonamide]	36.2 nM	–
CNS(=O)(=O)c1ccc(Oc2ccc(C(F)(F)F)cn2)c(-c2cn3c(n2)CCC3)c1 [10-1, 3-(6,7-Dihydro-5H-pyrrolo[1,2-a]imidazol-2-yl)-N-methyl-4-((5-(trifluoromethyl)pyridin-2-yl)oxy)benzenesulfonamide]	49.8 nM	–
CNS(=O)(=O)c1ccc(Oc2ccc(C(F)(F)F)cc2)c(-c2ccc3c(c2)NC(=O)CO3)c1 [2-22, N-methyl-3-(3-oxo-3,4-dihydro-2H-1,4-benzoxazin-6-yl)-4-[4-(trifluoromethyl)phenoxy]benzene-1-sulfonamide]	92.6 nM	–
CCc1ccc(Oc2ccc(S(=O)(=O)NC)cc2-c2cn3c(n2)CCC3)cc1 [4-9, 3-(6,7-dihydro-5H-pyrrolo [1,2-a]imidazol-2-yl)-4-(4-ethylphenoxy)-N-methylbenzene-1-sulfonamide]	15.1 nM	–

— patent US20240083903A1, “ARYL ETHER COMPOUNDS AS TEAD MODULATORS” (Merck Sharp& Dohme LLC, priority 2021, published 2024)
